Structures can show the parent of a compound that is named as a salt.
Key:
human μ opioid receptor = human μ opioid receptor (Homo sapiens (Human), UniProt P35372); test: Functional activity ([35S]GTPγS binding); assay type: biochemical; settings: [35S]GTPγS 0.080 nM, CHO cell membranes, 60 min at 30° C., filtration
In short: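 Membranes from stably transfected CHO cells (7.5 μg) incubated with 12 test-compound concentrations and 0.080 nM [35S]GTPγS in 50 mM Tris-HCl pH 7.4, 3 mM MgCl2, 0.2 mM EGTA, 3 μM GDP, 100 mM NaCl, 60 min at 30° C. Nonspecific binding defined with 10 μM GTPγS; bound label collected by filtration and scintillation counting.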

μ-receptor = μ-receptor (Homo sapiens (Human), UniProt P35372); test: Receptor binding, competitive displacement of [3H]DAMGO; settings: 0.25 nM [3H]DAMGO, CHO cell membrane protein, 60 min at 25° C.
In short: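 Membranes from CHO cells stably expressing cloned human μ-opioid receptor incubated 60 min at 25 °C with 12 compound concentrations and 0.25 nM [3H]DAMGO in 50 mM Tris-HCl pH 7.5; nonspecific binding with 10 μM naloxone. Filtration and scintillation counting; Ki from IC50 by Cheng-Prusoff.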

Compound	EC50 (human μ opioid receptor) [nM]	Ki (μ-receptor) [nM]
COC1(c2ccnc(C(N)=O)c2)C2CCCC1CN(CCN1CCCS1(=O)=O)C2 [Compound 88, 4-((1R,5S,9r)-3-(2-(1,1-dioxidoisothiazolidin-2-yl)ethyl)-9-methoxy-3-azabicyclo[3.3.1]nonan-9-yl)picolinamide hydrochloride]	> 75	1 to 5
COC1(c2ccnc(C(N)=O)c2)C2CCCC1CN(C1CC(c3ccccc3)C1)C2 [Compound 89, 4-((1R,5S,9R)-9-methoxy-3-((1s,3S)-3-phenylcyclobutyl)-3-azabicyclo[3.3.1]nonan-9-yl)picolinamide hydrochloride]	< 10	< 1
COC1(c2ccnc(C(N)=O)c2)C2CCCC1CN(C1CCC1)C2 [Compound 90, 4-((1R,5S,9r)-3-cyclobutyl-9-methoxy-3-azabicyclo[3.3.1]nonan-9-yl)picolinamide hydrochloride]	10 to 75	1 to 5
COC1(c2ccnc(C(N)=O)c2)C2CCCC1CN(CC(C)C)C2 [Compound 92, 4-((1R,5S,9r)-3-isobutyl-9-methoxy-3-azabicyclo[3.3.1]nonan-9-yl)picolinamide hydrochloride]	> 75	> 5
COC1(c2ccnc(C(N)=O)c2)C2CCCC1CN([C@@H]1C[C@H]3C[C@H]3C1)C2 (stereo partly drawn) [Compound 93, 4-((1R,5S,9R)-3-((1R,3r,5S)-bicyclo[3.1.0]hexan-3-yl)-9-methoxy-3-azabicyclo[3.3.1]nonan-9-yl)picolinamide hydrochloride]	10 to 75	1 to 5
COC1(c2ccnc(C(N)=O)c2)C2CCCC1CN([C@H]1C[C@H]3C[C@H]3C1)C2 (stereo partly drawn) [Compound 94, 4-((1R,5S,9R)-3-((1R,3s,5S)-bicyclo[3.1.0]hexan-3-yl)-9-methoxy-3-azabicyclo[3.3.1]nonan-9-yl)picolinamide hydrochloride]	10 to 75	< 1
COC1(c2ccc(C(N)=O)s2)C2CCCC1CN(CCN1CCNC1=O)C2 [Compound 95, 5-((1R,5S,9r)-9-methoxy-3-(2-(2-oxoimidazolidin-1-yl)ethyl)-3-azabicyclo[3.3.1]nonan-9-yl)thiophene-2-carboxamide (S)-2-hydroxysuccinate]	> 75	1 to 5
COC1(c2ccc(C(N)=O)s2)C2CCCC1CN(CCN1CCCS1(=O)=O)C2 [Compound 97, 5-((1R,5S,9r)-3-(2-(1,1-dioxidoisothiazolidin-2-yl)ethyl)-9-methoxy-3-azabicyclo[3.3.1]nonan-9-yl)thiophene-2-carboxamide (S)-2-hydroxysuccinate]	10 to 75	< 1
COC1(c2ccc(C(N)=O)s2)C2CCCC1CN(CCN1CCOC1=O)C2 [Compound 98, 5-((1R,5S,9r)-9-methoxy-3-(2-(2-oxooxazolidin-3-yl)ethyl)-3-azabicyclo[3.3.1]nonan-9-yl)thiophene-2-carboxamide (S)-2-hydroxysuccinate]	10 to 75	> 5
COC1(c2ccnc(C(N)=O)c2)C2CCCC1CN(Cc1ncc[nH]1)C2 [Compound 99, 4-((1R,5S,9r)-3-((1H-imidazol-2-yl)methyl)-9-methoxy-3-azabicyclo[3.3.1]nonan-9-yl)picolinamide hydrochloride]	10 to 75	1 to 5
COC1(c2ccnc(C(N)=O)c2)C2CCCC1CN(Cc1ccn[nH]1)C2 [Compound 100, 4-((1R,5S,9r)-3-((1H-pyrazol-5-yl)methyl)-9-methoxy-3-azabicyclo[3.3.1]nonan-9-yl)picolinamide hydrochloride]	10 to 75	< 1
COC1(c2ccc(C(N)=O)s2)C2CCCC1CN(C1CCCCC1)C2 [Compound 101, 5-((1R,5S,9r)-3-cyclohexyl-9-methoxy-3-azabicyclo[3.3.1]nonan-9-yl)thiophene-2-carboxamide hydrochloride]	> 75	1 to 5
COC1(c2ccnc(C(N)=O)c2)C2CCCC1CN(C[C@H]1C[C@@H]3C[C@@H]3C1)C2 (stereo partly drawn) [Compound 102, 4-((1R,5S,9R)-3-((1R,3r,5S)-bicyclo[3.1.0]hexan-3-ylmethyl)-9-methoxy-3-azabicyclo[3.3.1]nonan-9-yl)picolinamide hydrochloride]	10 to 75	< 1
COC1(c2ccnc(C(N)=O)c2)C2CCCC1CN(C13CC(C1)C3)C2 [Compound 103, 4-((1R,5S,9r)-3-(bicyclo[1.1.1]pentan-1-yl)-9-methoxy-3-azabicyclo[3.3.1]nonan-9-yl)picolinamide hydrochloride]	> 75	1 to 5
COC1(c2ccnc(C(N)=O)c2)C2CCCC1CN(C13CC(c4ccccc4)(C1)C3)C2 [Compound 106, 4-((1R,5S,9r)-9-methoxy-3-(3-phenylbicyclo[1.1.1]pentan-1-yl)-3-azabicyclo[3.3.1]nonan-9-yl)picolinamide hydrochloride]	< 10	< 1
COC1(c2ccnc(C(N)=O)c2)C2CCCC1CN(C(C)(C)C)C2 [Compound 107, 4-((1R,5S,9r)-3-(tert-butyl)-9-methoxy-3-azabicyclo[3.3.1]nonan-9-yl)picolinamide hydrochloride]	> 75	1 to 5
COC1(c2ccnc(C(N)=O)c2)C2CCCC1CN([C@@H]1CC[C@H]1c1ccccc1)C2 (stereo partly drawn) [Compound 109, 4-((1R,5S,9R)-9-methoxy-3-((1R,2S)-2-phenylcyclobutyl)-3-azabicyclo[3.3.1]nonan-9-yl)picolinamide hydrochloride]	< 10	< 1
COC1(c2ccnc(C(N)=O)c2)C2CCCC1CN(C1CCCOC1)C2 [Compound 111, 4-((1R,5S,9r)-9-methoxy-3-(tetrahydro-2H-pyran-3-yl)-3-azabicyclo[3.3.1]nonan-9-yl)picolinamide hydrochloride]	> 75	> 5
COC1(c2ccc(C(N)=O)s2)C2CCCC1CN(C13CC(C1)C3)C2 [Compound 112, 5-((1R,5S,9r)-3-(bicyclo[1.1.1]pentan-1-yl)-9-methoxy-3-azabicyclo[3.3.1]nonan-9-yl)thiophene-2-carboxamide hydrochloride]	> 75	1 to 5
COC1(c2ccnc(C(N)=O)c2)C2CCCC1CN(Cc1ncco1)C2 [Compound 113, 4-((1R,5S,9r)-9-methoxy-3-(oxazol-2-ylmethyl)-3-azabicyclo[3.3.1]nonan-9-yl)picolinamide hydrochloride]	> 75	> 5
COC1(c2ccc(C(N)=O)s2)C2CCCC1CN(C1CN(C(C)=O)C1)C2 [Compound 114, 5-((1R,5S,9r)-3-(1-acetylazetidin-3-yl)-9-methoxy-3-azabicyclo[3.3.1]nonan-9-yl)thiophene-2-carboxamide hydrochloride]	> 75	> 5
COC1(c2ccnc(C(N)=O)c2)C2CCCC1CN(Cc1cnco1)C2 (stereo not drawn) [Compound 115, hydrochloride]	10 to 75	1 to 5
COC1(c2ccnc(C(N)=O)c2)C2CCCC1CN([C@H]1CC[C@@H]1c1ccccc1)C2 (stereo partly drawn) [Compound 117, 4-((1R,5S,9s)-9-methoxy-3-((1S,2R)-2-phenylcyclobutyl)-3-azabicyclo[3.3.1]nonan-9-yl)picolinamide hydrochloride]	10 to 75	1 to 5
CCCC(C)N1CC2CCCC(C1)C2(OC)c1ccnc(C(N)=O)c1 [Compound 118, 4-((1R,5S,9r)-9-methoxy-3-(pentan-2-yl)-3-azabicyclo[3.3.1]nonan-9-yl)picolinamide hydrochloride]	10 to 75	1 to 5
COC1(c2ccnc(C(N)=O)c2)C2CCCC1CN(Cc1cncn1C)C2 [Compound 121, 4-((1R,5S,9r)-9-methoxy-3-((1-methyl-1H-imidazol-5-yl)methyl)-3-azabicyclo[3.3.1]nonan-9-yl)picolinamide hydrochloride]	> 75	1 to 5
COC1(c2ccnc(C(N)=O)c2)C2CCCC1CN(Cc1ccno1)C2 [Compound 124, 4-((1R,5S,9r)-3-(isoxazol-5-ylmethyl)-9-methoxy-3-azabicyclo[3.3.1]nonan-9-yl)picolinamide hydrochloride]	> 75	> 5
COC1(c2cccc(C(N)=O)c2)C2CCCC1CN(C1CC3(CCC3)C1)C2 [Compound 129, 3-((1R,5S,9r)-9-methoxy-3-(spiro[3.3]heptan-2-yl)-3-azabicyclo[3.3.1]nonan-9-yl)benzamide hydrochloride]	< 10	< 1
COC1(c2ccnc(C(N)=O)c2)C2CCCC1CN([C@H]1C[C@@H](C)C1)C2 (stereo partly drawn) [Compound 130, 4-((1R,5S,9R)-9-methoxy-3-((1s,3S)-3-methylcyclobutyl)-3-azabicyclo[3.3.1]nonan-9-yl)picolinamide hydrochloride]	10 to 75	< 1
COC1(c2ccnc(C(N)=O)c2)C2CCCC1CN([C@H]1C[C@H](C)C1)C2 (stereo partly drawn) [Compound 131, 4-((1R,5S,9R)-9-methoxy-3-((1r,3R)-3-methylcyclobutyl)-3-azabicyclo[3.3.1]nonan-9-yl)picolinamide hydrochloride]	10 to 75	1 to 5
COC1(c2ccnc(C(N)=O)c2)C2CCCC1CN([C@H]1CCCOC1)C2 (stereo partly drawn) [Compound 132, 4-((1R,5S,9s)-9-methoxy-3-((S)-tetrahydro-2H-pyran-3-yl)-3-azabicyclo[3.3.1]nonan-9-yl)picolinamide hydrochloride]	> 75	1 to 5
